In the supplement of paper PMC10307832:

Experiments:
Assay in all cases: relative viability (nuclei count vs DMSO), 5 days (fraction); higher = more cells survive
A549 = tested on: A549
Procedure, shortened: (§1)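 Lung cancer cell lines in 1536-well plates were dosed by pin tool the day after seeding, either with one drug alone or with a fixed anchor-drug dose plus five library-drug doses (not always all listed) in √10 steps. After 5 days, cells were fixed and their nuclei stained in one step (final 0.05% Triton X-100, 1% formaldehyde, 1 ug/ml Hoechst), then counted on 4× images. Relative viability is the nuclei count in treated wells divided by that in vehicle wells. Values are medians of duplicate plates.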

NCI-H1299 = tested on: NCI-H1299
Procedure, shortened: as §1

Calu-6 = tested on: Calu-6
Procedure, shortened: as §1

NCI-H1623 = tested on: NCI-H1623
Procedure, shortened: as §1

NCI-H838 = tested on: NCI-H838
Procedure, shortened: as §1

NCI-H1651 = tested on: NCI-H1651
Procedure, shortened: as §1

EBC-1 = tested on: EBC-1
Procedure, shortened: as §1

NCI-H650 = tested on: NCI-H650
Procedure, shortened: as §1

NCI-H520 = tested on: NCI-H520
Procedure, shortened: as §1

RERF-LC-KJ = tested on: RERF-LC-KJ
Procedure, shortened: as §1

NCI-H1944 = tested on: NCI-H1944
Procedure, shortened: as §1

IA-LM = tested on: IA-LM
Procedure, shortened: as §1

NCI-H1703 = tested on: NCI-H1703
Procedure, shortened: as §1

PC-3 [JPC-3] = tested on: PC-3 [JPC-3]
Procedure, shortened: as §1

NCI-H1648 = tested on: NCI-H1648
Procedure, shortened: as §1

Nc1ccn([C@@H]2O[C@H](CO)[C@@H](O)[C@@H]2O)c(=O)n1 [Cytarabine] + COc1cc2c(Oc3ccc(NC(=O)C4(C(=O)Nc5ccc(F)cc5)CC4)cc3F)ccnc2cc1OCCCN1CCOCC1 [Foretinib] (partner 0.25 µM)
relative viability (A549; first compound 0.005 µM): 0.622 | relative viability (A549; first compound 0.01581 µM): 0.629 | relative viability (A549; first compound 0.05 µM): 0.336 | relative viability (A549; first compound 0.1581 µM): 0.071 | relative viability (A549; first compound 0.5 µM): 0.0358 | relative viability (NCI-H1299; first compound 0.005 µM): 1.15 | relative viability (NCI-H1299; first compound 0.01581 µM): 1.13 | relative viability (NCI-H1299; first compound 0.05 µM): 1.05 | relative viability (NCI-H1299; first compound 0.1581 µM): 1.12 | relative viability (NCI-H1299; first compound 0.5 µM): 1.16 | relative viability (Calu-6; first compound 0.005 µM): 0.796 | relative viability (Calu-6; first compound 0.01581 µM): 0.702 | relative viability (Calu-6; first compound 0.05 µM): 0.707 | relative viability (Calu-6; first compound 0.1581 µM): 0.405 | relative viability (Calu-6; first compound 0.5 µM): 0.233 | relative viability (NCI-H1623; first compound 0.005 µM): 0.695 | relative viability (NCI-H1623; first compound 0.01581 µM): 0.545 | relative viability (NCI-H1623; first compound 0.05 µM): 0.375 | relative viability (NCI-H1623; first compound 0.1581 µM): 0.463 | relative viability (NCI-H1623; first compound 0.5 µM): 0.577 | relative viability (NCI-H838; first compound 0.005 µM): 1.13 | relative viability (NCI-H838; first compound 0.01581 µM): 1.08 | relative viability (NCI-H838; first compound 0.05 µM): 0.939 | relative viability (NCI-H838; first compound 0.1581 µM): 0.486 | relative viability (NCI-H838; first compound 0.5 µM): 0.301 | relative viability (NCI-H1651; first compound 0.005 µM): 0.769 | relative viability (NCI-H1651; first compound 0.01581 µM): 0.808 | relative viability (NCI-H1651; first compound 0.05 µM): 0.723 | relative viability (NCI-H1651; first compound 0.1581 µM): 0.583 | relative viability (NCI-H1651; first compound 0.5 µM): 0.372 | relative viability (EBC-1; first compound 0.005 µM): 0.0948 | relative viability (EBC-1; first compound 0.01581 µM): 0.0902 | relative viability (EBC-1; first compound 0.05 µM): 0.0964 | relative viability (EBC-1; first compound 0.1581 µM): 0.0746 | relative viability (EBC-1; first compound 0.5 µM): 0.076 | relative viability (NCI-H650; first compound 0.005 µM): 0.857 | relative viability (NCI-H650; first compound 0.01581 µM): 0.642 | relative viability (NCI-H650; first compound 0.05 µM): 0.504 | relative viability (NCI-H650; first compound 0.1581 µM): 0.283 | relative viability (NCI-H650; first compound 0.5 µM): 0.227 | relative viability (NCI-H520; first compound 0.005 µM): 0.739 | relative viability (NCI-H520; first compound 0.01581 µM): 0.795 | relative viability (NCI-H520; first compound 0.05 µM): 0.974 | relative viability (NCI-H520; first compound 0.1581 µM): 0.621 | relative viability (NCI-H520; first compound 0.5 µM): 0.589 | relative viability (RERF-LC-KJ; first compound 0.005 µM): 0.855 | relative viability (RERF-LC-KJ; first compound 0.01581 µM): 0.787 | relative viability (RERF-LC-KJ; first compound 0.05 µM): 0.735 | relative viability (RERF-LC-KJ; first compound 0.1581 µM): 0.545 | relative viability (RERF-LC-KJ; first compound 0.5 µM): 0.469 | relative viability (NCI-H1944; first compound 0.005 µM): 0.633 | relative viability (NCI-H1944; first compound 0.01581 µM): 0.438 | relative viability (NCI-H1944; first compound 0.05 µM): 0.331 | relative viability (NCI-H1944; first compound 0.1581 µM): 0.223 | relative viability (NCI-H1944; first compound 0.5 µM): 0.168 | relative viability (IA-LM; first compound 0.005 µM): 0.802 | relative viability (IA-LM; first compound 0.01581 µM): 1.05 | relative viability (IA-LM; first compound 0.05 µM): 0.916 | relative viability (IA-LM; first compound 0.1581 µM): 0.592 | relative viability (IA-LM; first compound 0.5 µM): 0.246 | relative viability (NCI-H1703; first compound 0.005 µM): 0.251 | relative viability (NCI-H1703; first compound 0.01581 µM): 0.273 | relative viability (NCI-H1703; first compound 0.05 µM): 0.253 | relative viability (NCI-H1703; first compound 0.1581 µM): 0.195 | relative viability (NCI-H1703; first compound 0.5 µM): 0.158 | relative viability (PC-3 [JPC-3]; first compound 0.005 µM): 0.947 | relative viability (PC-3 [JPC-3]; first compound 0.01581 µM): 0.832 | relative viability (PC-3 [JPC-3]; first compound 0.05 µM): 0.939 | relative viability (PC-3 [JPC-3]; first compound 0.1581 µM): 0.629 | relative viability (PC-3 [JPC-3]; first compound 0.5 µM): 0.615

Nc1ccn([C@@H]2O[C@H](CO)[C@@H](O)[C@@H]2O)c(=O)n1 [Cytarabine] + COc1cccc2cc(-c3nc([C@H]4CC[C@H](C(=O)O)CC4)n4ncnc(N)c34)[nH]c12 [OSI-027] (partner 0.5 µM)
relative viability (NCI-H1648; first compound 0.005 µM): 0.238 | relative viability (NCI-H1648; first compound 0.01581 µM): 0.266 | relative viability (NCI-H1648; first compound 0.05 µM): 0.246 | relative viability (NCI-H1648; first compound 0.1581 µM): 0.214 | relative viability (NCI-H1648; first compound 0.5 µM): 0.263 | relative viability (NCI-H1623; first compound 0.005 µM): 0.372 | relative viability (NCI-H1623; first compound 0.01581 µM): 0.376 | relative viability (NCI-H1623; first compound 0.05 µM): 0.277 | relative viability (NCI-H1623; first compound 0.1581 µM): 0.258 | relative viability (NCI-H1623; first compound 0.5 µM): 0.243 | relative viability (NCI-H838; first compound 0.005 µM): 0.397 | relative viability (NCI-H838; first compound 0.01581 µM): 0.379 | relative viability (NCI-H838; first compound 0.05 µM): 0.4 | relative viability (NCI-H838; first compound 0.1581 µM): 0.273 | relative viability (NCI-H838; first compound 0.5 µM): 0.185 | relative viability (NCI-H1651; first compound 0.005 µM): 0.792 | relative viability (NCI-H1651; first compound 0.01581 µM): 0.675 | relative viability (NCI-H1651; first compound 0.05 µM): 0.81 | relative viability (NCI-H1651; first compound 0.1581 µM): 0.442 | relative viability (NCI-H1651; first compound 0.5 µM): 0.298 | relative viability (NCI-H650; first compound 0.005 µM): 0.438 | relative viability (NCI-H650; first compound 0.01581 µM): 0.424 | relative viability (NCI-H650; first compound 0.05 µM): 0.235 | relative viability (NCI-H650; first compound 0.1581 µM): 0.194 | relative viability (NCI-H650; first compound 0.5 µM): 0.206 | relative viability (NCI-H520; first compound 0.005 µM): 0.25 | relative viability (NCI-H520; first compound 0.01581 µM): 0.262 | relative viability (NCI-H520; first compound 0.05 µM): 0.33 | relative viability (NCI-H520; first compound 0.1581 µM): 0.212 | relative viability (NCI-H520; first compound 0.5 µM): 0.16 | relative viability (RERF-LC-KJ; first compound 0.005 µM): 0.461 | relative viability (RERF-LC-KJ; first compound 0.01581 µM): 0.477 | relative viability (RERF-LC-KJ; first compound 0.05 µM): 0.5 | relative viability (RERF-LC-KJ; first compound 0.1581 µM): 0.391 | relative viability (RERF-LC-KJ; first compound 0.5 µM): 0.297 | relative viability (NCI-H1944; first compound 0.005 µM): 0.313 | relative viability (NCI-H1944; first compound 0.01581 µM): 0.239 | relative viability (NCI-H1944; first compound 0.05 µM): 0.214 | relative viability (NCI-H1944; first compound 0.1581 µM): 0.155 | relative viability (NCI-H1944; first compound 0.5 µM): 0.133 | relative viability (PC-3 [JPC-3]; first compound 0.005 µM): 0.607 | relative viability (PC-3 [JPC-3]; first compound 0.01581 µM): 0.721 | relative viability (PC-3 [JPC-3]; first compound 0.05 µM): 0.727 | relative viability (PC-3 [JPC-3]; first compound 0.1581 µM): 0.499 | relative viability (PC-3 [JPC-3]; first compound 0.5 µM): 0.454
